The test system of data set [1] is Bacillus subtilis. Description: Antibacterial activity against Bacillus subtilis 168 assessed as inhibition of bacterial growth incubated for 20 hrs by CLSI broth microdilution method. The data set is classed as functional. On the technique in general: Dilution methods test growth across graded concentrations, often in twofold steps.
A further data set has as its system Escherichia coli. Description: Antibacterial activity against Escherichia coli MG1655 assessed as inhibition of bacterial growth incubated for 20 hrs by CLSI broth microdilution method. It counts as functional.
The subject of data set [2] is Staphylococcus aureus. Description: Bactericidal activity against Staphylococcus aureus ATCC 25923 at 4 ug/ml incubated for 20 hrs in CAMHB followed by culturing onto CAMHA for 48 hrs by colony counting analysis. The data set is classed as functional, organism-based. To be noted: dose 4.0 µg/ml, time 68.0 hrs.
The subject of data set [3] is Bacillus subtilis. Description: Bactericidal activity against Bacillus subtilis 168 at 4 ug/ml incubated for 20 hrs in CAMHB followed by culturing onto CAMHA for 48 hrs by colony counting analysis. It counts as functional, organism-based. The note with it: dose 4.0 µg/ml, time 68.0 hrs.
The next data set relates to Vero. Description: (§1) Cytotoxicity against African green monkey Vero cells assessed as inhibition of cell growth at 50 ug/ml. The data set is classed as toxicity, cell-based. The note with it: chlorocebus sabaeus, vero; dose 50 µg/ml.
Data set [4] can be described thus: Cytotoxicity against mouse 3T3-L1 cells assessed as cell viability at 25 ug/ml measured after 24 to 72 hrs by MTT assay relative to control. The data set is classed as toxicity, cell-based. The note with it: at 25 µg/mL, time 24-72 hrs, read-out: Activity. In general terms: Tetrazolium assays rely on reduction of a dye to a coloured formazan, in cell work by metabolically active cells.

Data set [5] deals with Staphylococcus aureus. Description: Antibacterial activity against Staphylococcus aureus ATCC 25923 assessed as inhibition of bacterial growth incubated for 20 hrs by CLSI broth microdilution method. The data set is classed as functional.
Data set [6] concerns 3T3-L1. Description: Cytotoxicity against mouse 3T3-L1 cells assessed as reduction in cell viability at 12.5 ug/ml measured after 24 hrs by MTT assay. To be noted: 3t3-l1, 24 h, dose 12.5 µg/ml. It counts as toxicity, cell-based.
For data set [7], the system named is 3T3-L1. Description: Cytotoxicity against mouse 3T3-L1 cells assessed as reduction in cell viability at 25 ug/ml measured after 24 to 72 hrs by MTT assay. The note with it: time 24-72 hrs, dose 25 µg/ml. It counts as toxicity, cell-based.
In data set [8] the test system is Bacillus subtilis. Description: Induction of phenotypic changes in Bacillus subtilis 168 assessed as disruption of peptidoglycan synthesis by measuring inconsistency in NADA stain distribution throughout the cell at 4XMIC measured after 60 mins by NADA staining based fluorescent microscopy. The data set is classed as functional.
The subject of another data set is Streptococcus pneumoniae. Description: Antibacterial activity against Streptococcus pneumoniae assessed as inhibition of bacterial growth incubated for 20 hrs by CLSI broth microdilution method. It counts as functional.
Data set [9] can be described thus: Induction of phenotypic changes in Bacillus subtilis 168 assessed as abundance of ghost cells at 4XMIC measured after 1 hr by phase contrast microscopic analysis. It counts as functional.
For data set [10], the system named is Mycobacterium tuberculosis. Description: Antibacterial activity against Mycobacterium tuberculosis H37Rv assessed as inhibition of bacterial growth at 20 uM. The data set is classed as functional.
Data set [11] concerns Bacillus subtilis. Description: Induction of phenotypic changes in Bacillus subtilis 168 assessed as bacterial population with localized swelling at 4XMIC measured after 1 hr by phase contrast microscopic analysis. The data set is classed as functional.
The nature of data set [12]: as §1. It counts as toxicity, cell-based. The note with it: chlorocebus sabaeus, Vero cells, at 50 µg/mL.
For data set [13], the system named is Bacillus subtilis. Description: Induction of phenotypic changes in Bacillus subtilis 168 assessed as bacterial population with bulging phenotype at 4XMIC measured after 1 hr by phase contrast microscopic analysis. The data set is classed as functional.
The subject of the next data set is Acinetobacter baumannii. Description: Antibacterial activity against Acinetobacter baumannii assessed as inhibition of bacterial growth incubated for 20 hrs by CLSI broth microdilution method. The data set is classed as functional.
A further data set has as its system Acinetobacter baylyi. Description: Antibacterial activity against Acinetobacter baylyi assessed as inhibition of bacterial growth incubated for 20 hrs by CLSI broth microdilution method. It counts as functional.
The test system of the next data set is Enterococcus faecium. Description: Antibacterial activity against Enterococcus faecium assessed as inhibition of bacterial growth incubated for 20 hrs by CLSI broth microdilution method. It counts as functional.
Data set [14] deals with Staphylococcus aureus. Description: Antibacterial activity against Staphylococcus aureus ATCC 25923 assessed as inhibition of bacterial growth measured after repeated 30 day serial passage treatment by broth microdilution method. It counts as functional, organism-based.
Data set [15] has as its system Mycobacterium tuberculosis. Description: Antibacterial activity against Mycobacterium tuberculosis H37Rv assessed as inhibition of bacterial growth. The data set is classed as functional.

Active and inactive are the calls of the source. Bounds are passed on as bounds.

On to `COc1cc2c(cc1OC)C[N+](Cc1cn(-c3ccc(OCc4ccccc4)c(F)c3)nn1)(Cc1cn(-c3ccc(OCc4ccccc4)c(F)c3)nn1)CC2`, for which the results for the MIC95 in the data set on Bacillus subtilis [1], in the data set on Escherichia coli and with Staphylococcus aureus [5] were 4 µg/mL, greater than 128 µg/mL and 4 µg/mL, respectively. For the same molecule, the result with Staphylococcus aureus [2] and in the data set with Bacillus subtilis [3] was Active. Further, in the data set with Vero, the Activity entry was “Non-Toxic”. Moreover, the viability at 25 ug/ml in data set [4] was greater than 85%.

Regarding `COc1cc2c(cc1OC)C[N+](Cc1cn(-c3ccc(COc4ccccc4)cc3)nn1)(Cc1cn(-c3ccc(COc4ccccc4)cc3)nn1)CC2`, the MIC95 with Bacillus subtilis [1] is 32 µg/mL; in the data set with Escherichia coli, greater than 128 µg/mL; in the data set on Staphylococcus aureus [5] it was 32 µg/mL.

With `COc1cc2c(cc1OC)C(Cc1ccccc1)[N+](Cc1cn(-c3ccc(C(C)(C)C)cc3)nn1)(Cc1cn(-c3ccc(C(C)(C)C)cc3)nn1)CC2` (centres undefined), the MIC95 was greater than 128 µg/mL in the data set on Escherichia coli and 2 µg/mL with Staphylococcus aureus [5]. For the same molecule, the Activity entry in the data set on 3T3-L1 [6] was “Toxic”.

Turning to `COc1cc2c(cc1OC)C[N+](Cc1cn(-c3ccc(OCc4ccccc4)cc3F)nn1)(Cc1cn(-c3ccc(OCc4ccccc4)cc3F)nn1)CC2`, the MIC95 with Bacillus subtilis [1] was 4 µg/mL; with Escherichia coli, greater than 128 µg/mL; in the data set on Staphylococcus aureus [5], 4 µg/mL. Also, the result in the data set with Staphylococcus aureus [2] and with Bacillus subtilis [3] was Active. Also, the Activity entry in the data set on 3T3-L1 [7] is “Toxic”.

Take `COc1ccc(-n2cc(C[N+]3(Cc4cn(-c5ccc(OC)cc5)nn4)CCc4cc(OC)c(OC)cc4C3)nn2)cc1`: the MIC95 in the data set with Bacillus subtilis [1], in the data set with Escherichia coli and with Staphylococcus aureus [5] was greater than 128 µg/mL each time.

On to `COc1cc2c(cc1OC)C[N+](Cc1cn(-c3ccoc3)nn1)(Cc1cn(-c3ccoc3)nn1)CC2`, for which the MIC95 in the data set with Bacillus subtilis [1], in the data set with Escherichia coli and with Staphylococcus aureus [5] was greater than 128 µg/mL in each case.

Take `COc1cc2c(cc1OC)C[N+](Cc1cn(-c3cc(C(F)(F)F)cc(C(F)(F)F)c3)nn1)(Cc1cn(-c3cc(C(F)(F)F)cc(C(F)(F)F)c3)nn1)CC2`: the MIC95 in the data set with Bacillus subtilis [1] is greater than 128 µg/mL; with Escherichia coli it was greater than 128 µg/mL; with Staphylococcus aureus [5], 8 µg/mL.

Take `COc1cc2c(cc1OC)C[N+](Cc1cn(-c3ccc(C(F)(F)F)cc3C(F)(F)F)nn1)(Cc1cn(-c3ccc(C(F)(F)F)cc3C(F)(F)F)nn1)CC2`: the MIC95 was 32 µg/mL in the data set with Bacillus subtilis [1], greater than 128 µg/mL with Escherichia coli and 32 µg/mL with Staphylococcus aureus [5].

As to `COc1cc2c(cc1OC)C[N+](Cc1cn(-c3ccc([N+](=O)[O-])cc3)nn1)(Cc1cn(-c3ccc([N+](=O)[O-])cc3)nn1)CC2`, the MIC95 with Bacillus subtilis [1], in the data set with Escherichia coli and in the data set on Staphylococcus aureus [5] was greater than 128 µg/mL each time.

For `COc1cc2c(cc1OC)C[N+](Cc1cn(-c3ccc(C(=O)N(C)C)cc3)nn1)(Cc1cn(-c3ccc(C(=O)N(C)C)cc3)nn1)CC2`, the MIC95 in the data set with Bacillus subtilis [1], in the data set with Escherichia coli and in the data set with Staphylococcus aureus [5] was greater than 128 µg/mL throughout.

As for `COc1cc2c(cc1OC)C[N+](Cc1cn(-c3ccc(Cl)nc3Cl)nn1)(Cc1cn(-c3ccc(Cl)nc3Cl)nn1)CC2`, the MIC95 in the data set with Bacillus subtilis [1], with Escherichia coli and with Staphylococcus aureus [5] was greater than 128 µg/mL throughout.

Take `COc1cc2c(cc1OC)C[N+](Cc1cn(-c3ccc(Cl)cc3)nn1)(Cc1cn(-c3ccc(Cl)cc3)nn1)CC2`: the values for the MIC95 in the data set with Bacillus subtilis [1], with Escherichia coli and with Staphylococcus aureus [5] were 32 µg/mL, greater than 128 µg/mL and 32 µg/mL, respectively.

Take `COc1cc2c(cc1OC)C[N+](Cc1cn(-c3ccc(C#N)cc3)nn1)(Cc1cn(-c3ccc(C#N)cc3)nn1)CC2`: the MIC95 in the data set with Bacillus subtilis [1], in the data set on Escherichia coli and with Staphylococcus aureus [5] was greater than 128 µg/mL each time.

For `COc1cccc(CC2c3cc(OC)c(OC)cc3CC[N+]2(Cc2cn(-c3ccc(C(C)(C)C)cc3)nn2)Cc2cn(-c3ccc(C(C)(C)C)cc3)nn2)c1` (centres undefined), the results for the MIC95 with Escherichia coli and in the data set on Staphylococcus aureus [5] were greater than 128 µg/mL and 4 µg/mL, respectively. For the same molecule, in the data set on 3T3-L1 [6], the Activity result is listed as “Toxic”.

Consider `COc1cc2c(cc1OC)C[N+](Cc1cn(-c3ccc4ccccc4c3)nn1)(Cc1cn(-c3ccc4ccccc4c3)nn1)CC2`, for which the MIC95 in the data set with Bacillus subtilis [1] was 32 µg/mL; in the data set on Escherichia coli, greater than 128 µg/mL; in the data set with Staphylococcus aureus [5], 32 µg/mL.

The inhibition is the share of the control response that was lost under treatment. What is called MIC is the smallest concentration in the dilution series that meets the test's criterion for growth inhibition. For `COc1cc2c(cc1OC)C[N+](Cc1cn(-c3ccc(C(C)(C)C)cc3)nn1)(Cc1cn(-c3ccc(C(C)(C)C)cc3)nn1)CC2`, the outcome in the data set on Bacillus subtilis [8], with Staphylococcus aureus [2], with Bacillus subtilis [3] and in the data set with Staphylococcus aureus [14] was Active. Further, the MIC95 was 4 µg/mL with Bacillus subtilis [1]; 8 µg/mL in the data set with Streptococcus pneumoniae; greater than 128 µg/mL in the data set on Escherichia coli; 4 µg/mL in the data set on Staphylococcus aureus [5]; 128 µg/mL in the data set on Acinetobacter baumannii; 128 µg/mL in the data set on Acinetobacter baylyi. For the same molecule, the MIC95 with Enterococcus faecium was 8 µg/mL. Also, the Activity in [9] is greater than 50%; with Bacillus subtilis [11], 20%; in the data set with Bacillus subtilis [13], 10%; in the data set with 3T3-L1 [7], “Toxic”. Further, in data set [10], the inhibition at 20 µM was greater than 90%. Also, in [12], the inhibition at 50 ug/ml is 89%. For the same molecule, the MIC in data set [15] came to 6 µg/mL.

Regarding `COc1cc2c(cc1OC)C[N+](Cc1cn(-c3ccc(-c4ccccc4)cc3)nn1)(Cc1cn(-c3ccc(-c4ccccc4)cc3)nn1)CC2`, the MIC95 in the data set on Escherichia coli is greater than 128 µg/mL; in the data set with Staphylococcus aureus [5], 32 µg/mL.

As to `COc1cc2c(cc1OC)C[N+](Cc1cn(-c3ccccc3)nn1)(Cc1cn(-c3ccccc3)nn1)CC2`, the MIC95 in the data set with Escherichia coli and in the data set on Staphylococcus aureus [5] was greater than 128 µg/mL throughout.

The record behind these values is ChEMBL document CHEMBL5131487, “Synthesis and biological evaluation of tetrahydroisoquinoline-derived antibacterial compounds” (Bioorg Med Chem, 2022).
